Results taken from patent publication US20110144029A1, “Model Systems and Materials for the Study and Treatment of Neurodegenerative Diseases” (BOARD OF REGENTS, THE UNIVERSITY OF TEXAS SYSTEM, priority 2009, published 2011).
“Also recorded” adds a separate entry of the source. Where a SMILES comes first, the peptide text is derived from it. [ ]: non-standard residue; d: D form.

Tests used:
[1] = tested on: cerebellar granule neurons; experiment: Live/Dead (Red/Green) viability assay in cultured cerebellar granule neurons; format: cell-based, rat; details: 24 h peptide treatment, HK medium
Method: Neuronal cultures were switched to serum-free medium T-peptide, K-peptide, Core-peptide, V-peptide. VV-peptide, and T (L)-peptide. All peptides were used at 25 μM concentration. Phase contrast micrographs show appearance of the cultures after 24 h of peptide treatment. The Live/Dead viability assay was also performed. Nuclei of dead cells are stained red whereas cytoplasm of living cells are stained green. In the case of sick and dying cells, green staining is condensed;
(§1) Cerebellar granule neurons were switched to serum-free medium containing various concentrations of T-peptide, K-peptide, Core-peptide, V-peptide, VV-peptide, and T (L)-peptide. Cell viability was measured using two independent methods 24 h after peptide treatment and results are graphed. * indicates p<0.05 compared with control cells that were treated with HK: (4A) Results from Red/Green viability assay, (4B) Results from MTT assay;
Culturing and treatment of neurons: Cerebellar granule neurons were cultured from 7-8 day old rats as previously described. The neurons were plated in 24-well with poly-L-lysine coated glass coverslips at a density of ˜1 million cells/well in Basal Eagle's Medium with Earle's salts (BME) supplemented with 10% FCS, 25 mM KCl, 2 mM glutamine and […] gentamicin. To prevent mitosis of glial cells, cytosine arabinofuranoside ([…]) was added to culture 16-20 hrs after plating. Neuronal cultures were treated with peptides 6-7 days after plating. For treatment, the cultures were switched to serum-free medium containing 25 mM KCl (referred to as high potassium or HK medium). Although serum is required for proper maturation, after 5 days in culture, the neurons survive normally in the absence of serum provided depolarizing levels of KCl is added.
Cell viability quantification: Cell viability was quantified using the Live/Dead assays with a commercially available kit (Invitrogen). This is a two-color fluorescence assay utilizing two cell-permeable compounds, calcein acetoxymethyl (calcein AM) and ethidium homodimer-1 (EthD-1). Live cells have intracellular esterases that convert non-fluorescent calcein AM to the intensely green fluorescent calcein, which is retained within the cytoplasm of cells. Because dead cells have damaged membranes, EthD-1 enters and is fluorescent when bound to nucleic acids. EthD-1 stains the nuclei of damaged or dead cells. As recommended by the manufacturer, cells plated in wells with cover-slips were incubated in Live/Dead reagent (1 uM calcein AM and 4 uM EthD-1) for 30 min, and then mounted on slides. Cell viability was also analyzed using the MTT [3-(4,5-Dimethylthiazol-2-yl)-2,5-diphenyltetrazolium bromide] assay based on the evaluation of mitochondrial function. MTT assays were performed as previously described. Briefly, MTT (5 mg/ml in culture medium) was added to the culture medium and the cells incubated at 37° C. for 1 h. The assay was stopped by adding lysis buffer [20% sodium dodecyl sulfate (SDS) in 50% N,N-dimethylformamide, pH 4.7]. Absorbance was measured spectrophotometrically at 570 nm after an overnight incubation at room temperature.

[2] = tested on: cerebellar granule neurons; experiment: MTT assay in cerebellar granule neurons; format: cell-based, rat; details: 24 h peptide treatment
Method: as §1
Culturing and treatment of neurons: Cerebellar granule neurons were cultured from 7-8 day old rats as previously described. The neurons were plated in 24-well with poly-L-lysine coated glass coverslips at a density of ˜1 million cells/well in Basal Eagle's Medium with Earle's salts (BME) supplemented with 10% FCS, 25 mM KCl, 2 mM glutamine and […] gentamicin. […]
Cell viability quantification: Cell viability was quantified using the Live/Dead assays with a commercially available kit (Invitrogen). This is a two-color fluorescence assay utilizing two cell-permeable compounds, calcein acetoxymethyl (calcein AM) and ethidium homodimer-1 (EthD-1). […] Cell viability was also analyzed using the MTT [3-(4,5-Dimethylthiazol-2-yl)-2,5-diphenyltetrazolium bromide] assay based on the evaluation of mitochondrial function. […] Absorbance was measured spectrophotometrically at 570 nm after an overnight incubation at room temperature.

[3] = Polymerization kinetics by Thioflavin S (ThS) fluorescence in the presence of heparin; format: physicochemical; details: for A (first phase / growth curve): ST-peptide according to Eqn. [2]
Method: Aggregation kinetics of T-peptide (filled triangles), V-peptide (filled diamonds), F-peptide (X), Core peptide (open triangles), VV-peptide (open diamonds) and K-peptide (filled circles). […] Solid lines represent fitted values;
Kinetic analysis: Polymerization kinetics were measured by monitoring the increase in Thioflavin S (ThS) fluorescence at 490 nm (440 nm excitation). Slit widths were 15 and 20 nm respectively for excitation and emission. All measurements were carried out at 21° C. with a Perkin Elmer LS50B spectrofluorimeter using a 75 μL quartz cell. Data points were collected at 6 s intervals over the course of the experiment (60 min). In order to initiate polymerization a freshly filtered stock solution was diluted to 10 μM in 200 μL of Buffer A containing 33 μM heparin (Sigma-Aldrich; 3,000 MW) and 100 μM Thioflavin S (ThS). Kinetics data, corrected for the blank, were fit using a non-linear least squares algorithm to a Gompertz-like growth curve {{260 Necula, M. 2004}} (Eqn.)
where y is defined as the fluorescence signal at time t, ti corresponds to the inflection point of the curve, or the time of maximum growth rate, A is the maximum fluorescence observed for a given sample, and b=1/k, where k is the rate constant of aggregation, in units of s^−1. Lag-times were calculated as ti−b. The pre-growth curve exponential, e^(−k′t) was inserted to take into account the slow decrease in fluorescent intensity resulting from ThS bleaching, quenching and gravitational precipitation of the amyloid-ThS complex. Standard errors in fitted parameters were estimated assuming a 10% error in the sum of the squares.

[4] = previously shown [19, 20]; cited from earlier work
[5] = Transmission electron microscopy (TEM) of peptide aggregates; format: physicochemical; details: 100 μM peptide in Buffer A, uranyl acetate stain
Method: All peptides were prepared at 100 μM in Buffer A and stained with uranyl acetate;
Transmission Electron Microscopy (TEM): Filtered stock peptide solutions were diluted to 100 μM in 5 mM MOPS containing 0.1% NaN3, 0.15 M NaCl, pH 7.2 (Buffer A) and were incubated at room temperature overnight. Samples were loaded onto carbon-coated Formvar copper grids (200 mesh) and stained with 2% wt/wt uranyl acetate. A JEOL 1200 EX scope interfaced to a digital camera was used to visualize samples.

culture = experiment: Neurotoxicity of non-tau related aggregating peptides in culture; format: cell-based; details: FIG. 13
Source text: FIG. 13 is an image of the non-tau related aggregating peptides are not neurotoxic.

With `CC(=O)N[C@@H](CCCNC(=N)N)C(=O)N[C@@H](CCCNC(=N)N)C(=O)N[C@@H](CCCNC(=N)N)C(=O)N[C@@H](CCCNC(=N)N)C(=O)N[C@@H](CCCNC(=N)N)C(=O)N[C@@H](CCCNC(=N)N)C(=O)N[C@@H](CCCNC(=N)N)C(=O)N[C@@H](CCCNC(=N)N)C(=O)N[C@@H](CCCNC(=N)N)C(N)=O` [Ac—R9—NH2, reference compound] the “neurotoxicity / effect on neuronal survival” value (from here on “neurotoxicity / effect”) [1] was “no effect on neuronal survival”.

In the case of `CC[C@@H](C)[C@@H](NC(=O)[C@@H](CCC(N)=O)NC(=O)[C@H](NC(C)=O)C(C)C)C(=O)N[C@@H](C(=O)N[C@H](Cc1ccc(O)cc1)C(=O)N[C@H](CCCCN)C(N)=O)C(C)C` [Core-peptide, Ac-vqivyk-NH2] (Ac-[dV][dQ][dI][dV][dY][dK]-NH2), the “neurotoxicity / effect” value [1] is reported as “not toxic” and the “MTT assay result (mitochondrial function, words)” value [2] is reported as “mitochondrial dysfunction”.

With `CC[C@@H](C)[C@@H](NC(=O)[C@@H](CCC(N)=O)NC(=O)[C@H](NC(C)=O)C(C)C)C(=O)N[C@@H](C(=O)N[C@H](CCCCN)C(=O)N[C@H](CCCCN)C(=O)N[C@@H](CCCNC(=N)N)C(=O)N[C@@H](CCCNC(=N)N)C(=O)N[C@@H](CCCNC(=N)N)C(=O)N[C@@H](CCCNC(=N)N)C(=O)N[C@@H](CCCNC(=N)N)C(=O)N[C@@H](CCCNC(=N)N)C(=O)N[C@@H](CCCNC(=N)N)C(=O)N[C@@H](CCCNC(=N)N)C(=O)N[C@@H](CCCNC(=N)N)C(N)=O)C(C)C` [K-peptide, Ac-vqivkk-R9—NH2] the “neurotoxicity / effect” value [1] was “neither K-peptide nor VV-peptide reduced neuronal survival”.

For `CC(=O)N[C@@H](C(=O)N[C@H](CCC(N)=O)C(=O)N[C@@H](C(=O)N[C@@H](C(=O)N[C@H](Cc1ccc(O)cc1)C(=O)N[C@H](CCCCN)C(=O)N[C@@H](CCCNC(=N)N)C(=O)N[C@@H](CCCNC(=N)N)C(=O)N[C@@H](CCCNC(=N)N)C(=O)N[C@@H](CCCNC(=N)N)C(=O)N[C@@H](CCCNC(=N)N)C(=O)N[C@@H](CCCNC(=N)N)C(=O)N[C@@H](CCCNC(=N)N)C(=O)N[C@@H](CCCNC(=N)N)C(=O)N[C@@H](CCCNC(=N)N)C(N)=O)C(C)C)C(C)C)C(C)C` [V-peptide, Ac-vqvvyk-R9—NH2], the “neurotoxicity / effect” value [1] was “moderate level of cell death”.

With `CC(=O)N[C@@H](C(=O)N[C@H](CCC(N)=O)C(=O)N[C@@H](C(=O)N[C@@H](C(=O)N[C@@H](C(=O)N[C@H](CCCCN)C(=O)N[C@@H](CCCNC(=N)N)C(=O)N[C@@H](CCCNC(=N)N)C(=O)N[C@@H](CCCNC(=N)N)C(=O)N[C@@H](CCCNC(=N)N)C(=O)N[C@@H](CCCNC(=N)N)C(=O)N[C@@H](CCCNC(=N)N)C(=O)N[C@@H](CCCNC(=N)N)C(=O)N[C@@H](CCCNC(=N)N)C(=O)N[C@@H](CCCNC(=N)N)C(N)=O)C(C)C)C(C)C)C(C)C)C(C)C` [VV-peptide, Ac-vqvvvkR9—NH2] the “neurotoxicity / effect” value [1] was “neither K-peptide nor VV-peptide reduced neuronal survival”.

In the case of “Ac-VQIVFK-R9—NH2 (Ac-VQIVFKRRRRRRRRR-NH2) [F-peptide]”, the “neurotoxicity / effect” value [1] is reported as “induces toxicity”, the “A (maximum fluorescence, fitted kinetic parameter)” value ([3]; 10 μM peptide, 33 μM heparin, 100 μM ThS, Buffer A pH 7.2, 21° C., NA = no aggregation observed by ThS fluorescence, ±10% error) is reported as 5.5 and the “self-aggregation in vitro” value ([3]; ThS fluorescence, heparin, 10 μM concentration) is reported as “aggregate in a fashion similar to the Core peptide; also recorded: capable of self-aggregation in vitro”.

For Ac-^306VQIVYK^311-NH2 [AcPHF6], the “critical concentration above which peptide polymerizes into amyloid fibrils” value [4] is listed as “about 2 μM”.

In the case of “SQIVYA-R9 (SQIVYARRRRRRRRR) [SQ-peptide, de novo non-tau aggregating peptide]”, the “morphology of aggregates” value [5] is reported as “irregular non-uniform filaments similar to V-peptide”, the neurotoxicity in culture (culture) is reported as “neither of these two peptides displayed neurotoxicity” and the “A (first phase / growth curve)” value ([3]; ThS fluorescence) is reported as 8.8.

In the case of “STVIIE-R9 (STVIIERRRRRRRRR) [ST-peptide, non-tau aggregating peptide previously described by Pastor et al, reference compound]”, the “diameter of fibrils / filaments / amyloid bodies / fibers” value ([5]; overnight) is reported as 10-40 nm, the “morphology of aggregates” value [5] is reported as “amyloid sheets which appear to roll into irregular fibers” and the neurotoxicity in culture (culture) is reported as “neither of these two peptides displayed neurotoxicity”. The lag time ([3]; ThS fluorescence) was ~3000 s, the “A (first phase / growth curve)” value ([3]; ThS fluorescence) was 4.9 and the “A′ (second period of more rapid aggregation)” value ([3]; according to Eqn. [2]) was 6.3.
